In patent US20110076258A1, “METHODS OF MODULATING T CELL- DEPENDENT IMMUNE RESPONSES” (Converge Biotech Inc., priority 2008, published 2011):

Test system: cd3ε^−/− mice
Assay: Inflammatory bowel disease induced by naïve CD4^+ T cells
Assay type: in vivo, mouse
Source text: FIG. 8: Amelioration of inflammatory bowel disease by oATP treatment. • a) Photographs of representative mesenteric lymph nodes, spleens and colons from cd3ε^−/− mice adoptively transferred with CD4^+/CD25^+ and CD4^+ cells (see Example 5). […] Bar=1 cm • b) Histograms representing inflammation scores in animals treated as indicated (see methods section) (mean±SD; n=5, CD4^+/25^+ healthy control group; n=7, CD4^+ untreated group; n=8, CD4^+ oATP-treated group). • c) Hematoxilin/eosin (upper panels) and Alcian/PAS (lower panels) staining of colon sections from the indicated animals (all the microscopic pictures in the box were taken at the same magnification; scale bar=50 μm). […] Partial goblet cell depletion and reduction in size of Alcian-PAS-positive droplets are also noticeable (arrowheads); in mice reconstituted with CD4 cells and treated with PBS, the lamina propria is markedly expanded by inflammatory cell infiltrate with focal findings of crypt abscessation (arrow). Colonic crypts are also severely dysplastic with almost complete loss of goblet cells. • d) Cell recoveries from mesenteric lymph nodes and spleen of the indicated animals.
e) Absolute numbers of IL-2-, TNFα-, IFNγ- and IL-17-producing CD4^+ T cells in mesenteric lymph nodes from the indicated mice (mean±SD; n=5, CD4^+/25^+ healthy group; n=7, CD4^+ untreated group; n=8, CD4^+ oATP-treated group). *, P<0.05, **, P<0.001, ***, P<0.0001 • f) Absolute numbers of CD44^+CD62L^− effector/memory and CD69^+ CD4 cells recovered from mesenteric lymph nodes and spleen of the indicated group of animals (bars represent mean values).
To test oATP in a non-transgenic model of T cell-mediated inflammation, we induced inflammatory bowel disease (IBD) in T lymphopenic cd3ε^−/− mice by injecting naïve CD4^+ T cells. As a healthy control we used cd3ε^−/− mice injected with naïve CD4^+ T cells together with CD4^+CD25^+ cells comprising regulatory T cells (Treg). […] Starting at day 15 after cell transfer, the IBD group was daily injected intravenously either with PBS or oATP.

SMILES: Nc1ncnc2c1ncn2[C@@H](C=O)O[C@@H](C=O)COP(=O)(O)OP(=O)(O)OP(=O)(O)O [oATP]
- macroscopic intestine phenotype (thickening of the bowel wall, unformed or absent stool) (5 weeks after reconstitution, daily i.v. from day 15): significantly ameliorated
- number of proinflammatory cytokine (IL-2, IFN-γ and TNF-α)-secreting cells (mesenteric lymph nodes): significantly reduced
- cellularity, CD4^+ effector/memory subset (CD44^+62L^−) and CD69^+ cells in mesenteric lymph nodes and spleen (mouse, in vivo): undistinguishable from healthy controls
- colon histology (hematoxilin/eosin, Alcian/PAS) (mouse, in vivo): lamina propria is focally expanded by inflammatory cells infiltrate
- inflammation score versus animals injected with CD4^+ and Treg cells (mouse, in vivo): not significantly different
- number of IL-17 secreting cells (mouse, in vivo): analogous to the number in control mice
- spleen and mesenteric lymph nodes size (mouse, in vivo): normal in size
